Data from patent US12077503B2, “Substituted cyclic amides and their use as herbicides” (FMC CORPORATION, priority 2015, dated 2024).

How the values were obtained:
Type in all cases: in vivo
[1] = tested on: velvetleaf (Abutilon theophrasti); test: Test G Pre-Emergence Protocol; conditions: Abutilon theophrasti, pre-emergence, 312 h, evaluated after 13 days
Outline: (§1)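 Scores are visual damage ratings from 0 (no damage) to 100 (total plant kill), taken 13 days after treatment. Compound was sprayed one day post-sowing at 15.625, 62.5 or 250 g/ha in 50:50 acetone/water with 0.5% Tween 20.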

[2] = tested on: redroot pigweed (Amaranthus retroflexus); test: Test G Pre-Emergence Protocol; conditions: Amaranthus retroflexus, pre-emergence, 312 h, evaluated after 13 days
Outline: as §1

[3] = tested on: ivy-leaved morning glory (Ipomoea hederacea); test: Test G Pre-Emergence Protocol; conditions: Ipomoea, pre-emergence, 312 h, evaluated after 13 days
Outline: as §1

[4] = tested on: giant foxtail (Setaria faberi); test: Test G Pre-Emergence Protocol; conditions: Setaria faberi, pre-emergence, 312 h, evaluated after 13 days
Outline: as §1

corn (Zea mays) [5] = test: Test G Pre-Emergence Protocol; conditions: Zea mays, pre-emergence, 312 h, evaluated after 13 days
Outline: as §1

[6] = tested on: barnyardgrass (Echinochloa crus-galli); test: Test G Pre-Emergence Protocol; conditions: Echinochloa crus-galli, pre-emergence, 312 h, evaluated after 13 days
Outline: as §1

[7] = tested on: velvetleaf (Abutilon theophrasti); test: Test G Post-Emergence Protocol; conditions: Abutilon theophrasti, post-emergence, 312 h
Outline: (§2)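 Sow in soil; grow 8 d (24/16 °C, 14 h light, 65% humidity); spray 15.625/62.5/250 g/ha in acetone:water 50:50 + 0.5% Tween 20; grow on, water twice daily; score damage 0–100 at 13 d.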

[8] = tested on: redroot pigweed (Amaranthus retroflexus); test: Test G Post-Emergence Protocol; conditions: Amaranthus retroflexus, post-emergence, 312 h
Outline: as §2

[9] = tested on: ivy-leaved morning glory (Ipomoea hederacea); test: Test G Post-Emergence Protocol; conditions: Ipomoea, post-emergence, 312 h
Outline: as §2

[10] = tested on: giant foxtail (Setaria faberi); test: Test G Post-Emergence Protocol; conditions: Setaria faberi, post-emergence, 312 h
Outline: as §2

corn (Zea mays) [11] = test: Test G Post-Emergence Protocol; conditions: Zea mays, post-emergence, 312 h
Outline: as §2

[12] = tested on: barnyardgrass (Echinochloa crus-galli); test: Test G Post-Emergence Protocol; conditions: Echinochloa crus-galli, post-emergence, 312 h
Outline: as §2

CN1C[C@@H](c2ccc(C(F)(F)F)nc2)[C@H](C(=O)Nc2cccc(F)n2)C1=O (racemic) [Compound 1491]
pest or weed control at 15.625 g/ha ([1]; 15.625 g ai/ha, read-out: Velvetleaf damage rating (100=total damage to plant; 0=no damage to plant)): 0%
pest or weed control at 62.5 g/ha ([1]; 62.5 g ai/ha, 100=total damage to plant, 0=no damage to plant, read-out: plant damage rating, Velvetleaf): 0%
pest or weed control at 250 g/ha ([1]; 250 g ai/ha, read-out: Velvetleaf damage rating (100=total damage to plant; 0=no damage to plant)): 0%
pest or weed control at 15.625 g/ha ([2]; 15.625 g ai/ha, read-out: Pigweed, Redroot damage rating (100=total damage to plant; 0=no damage to plant)): 0%
pest or weed control at 62.5 g/ha ([2]; 62.5 g ai/ha, 100=total damage to plant, 0=no damage to plant, read-out: plant damage rating, Pigweed, Redroot): 0%
pest or weed control at 250 g/ha ([2]; 250 g ai/ha, read-out: Pigweed, Redroot damage rating (100=total damage to plant; 0=no damage to plant)): 0%
pest or weed control at 15.625 g/ha ([3]; 15.625 g ai/ha, read-out: Morning-glory, Ivy-leaved damage rating (100=total damage to plant; 0=no damage to plant)): 0%
pest or weed control at 62.5 g/ha ([3]; 62.5 g ai/ha, 100=total damage to plant, 0=no damage to plant, read-out: plant damage rating, Morningglory, Ivy-leaved): 0%
pest or weed control at 250 g/ha ([3]; 250 g ai/ha, read-out: Morningglory, Ivy-leaved damage rating (100=total damage to plant; 0=no damage to plant)): 0%
pest or weed control at 15.625 g/ha ([4]; 15.625 g ai/ha, read-out: Foxtail, Giant damage rating (100=total damage to plant; 0=no damage to plant)): 0%
pest or weed control at 62.5 g/ha ([4]; 62.5 g ai/ha, 100=total damage to plant, 0=no damage to plant, read-out: plant damage rating, Foxtail, Giant): 50%
pest or weed control at 250 g/ha ([4]; 250 g ai/ha, read-out: Foxtail, Giant damage rating (100=total damage to plant; 0=no damage to plant)): 80%
plant injury at 15.625 g/ha (corn (Zea mays) [5]; 15.625 g ai/ha, read-out: Corn damage rating (100=total damage to plant; 0=no damage to plant)): 0%
plant injury at 62.5 g/ha (corn (Zea mays) [5]; 62.5 g ai/ha, 100=total damage to plant, 0=no damage to plant, read-out: plant damage rating, Corn): 0%
plant injury at 250 g/ha (corn (Zea mays) [5]; 250 g ai/ha, read-out: Corn damage rating (100=total damage to plant; 0=no damage to plant)): 0%
pest or weed control at 15.625 g/ha ([6]; 15.625 g ai/ha, read-out: Barnyard grass damage rating (100=total damage to plant; 0=no damage to plant)): 0%
pest or weed control at 62.5 g/ha ([6]; 62.5 g ai/ha, 100=total damage to plant, 0=no damage to plant, read-out: plant damage rating, Barnyardgrass): 20%
pest or weed control at 250 g/ha ([6]; 250 g ai/ha, read-out: Barnyardgrass damage rating (100=total damage to plant; 0=no damage to plant)): 90%
pest or weed control at 15.625 g/ha ([7]; 15.625 g ai/ha, evaluated after 13 days (100=total damage to plant; 0=no damage to plant), read-out: Velvetleaf damage rating): 0%
pest or weed control at 62.5 g/ha ([7]; 62.5 g ai/ha, evaluated after 13 days, read-out: Velvetleaf damage rating (100=total damage to plant; 0=no damage to plant)): 0%
pest or weed control at 250 g/ha ([7]; 250 g ai/ha, evaluated after 13 days, read-out: damage to plant, Velvetleaf (100=total damage to plant; 0=no damage to plant)): 0%
pest or weed control at 15.625 g/ha ([8]; 15.625 g ai/ha, evaluated after 13 days (100=total damage to plant; 0=no damage to plant), read-out: Pigweed, Redroot damage rating): 0%
pest or weed control at 62.5 g/ha ([8]; 62.5 g ai/ha, evaluated after 13 days, read-out: Pigweed, Redroot damage rating (100=total damage to plant; 0=no damage to plant)): 0%
pest or weed control at 250 g/ha ([8]; 250 g ai/ha, evaluated after 13 days, read-out: damage to plant, Pigweed, Redroot (100=total damage to plant; 0=no damage to plant)): 0%
pest or weed control at 15.625 g/ha ([9]; 15.625 g ai/ha, evaluated after 13 days (100=total damage to plant; 0=no damage to plant), read-out: Morningglory, Ivy-leaved damage rating): 0%
pest or weed control at 62.5 g/ha ([9]; 62.5 g ai/ha, evaluated after 13 days, read-out: Morningglory, Ivy-leaved damage rating (100=total damage to plant; 0=no damage to plant)): 0%
pest or weed control at 250 g/ha ([9]; 250 g ai/ha, evaluated after 13 days, read-out: damage to plant, Morningglory, Ivy-leaved (100=total damage to plant; 0=no damage to plant)): 10%
pest or weed control at 15.625 g/ha ([10]; 15.625 g ai/ha, evaluated after 13 days (100=total damage to plant; 0=no damage to plant), read-out: Foxtail, Giant damage rating): 0%
pest or weed control at 62.5 g/ha ([10]; 62.5 g ai/ha, evaluated after 13 days, read-out: Foxtail, Giant damage rating (100=total damage to plant; 0=no damage to plant)): 20%
pest or weed control at 250 g/ha ([10]; 250 g ai/ha, evaluated after 13 days, read-out: damage to plant, Foxtail, Giant (100=total damage to plant; 0=no damage to plant)): 60%
plant injury at 15.625 g/ha (corn (Zea mays) [11]; 15.625 g ai/ha, evaluated after 13 days (100=total damage to plant; 0=no damage to plant), read-out: Corn damage rating): 0%
plant injury at 62.5 g/ha (corn (Zea mays) [11]; 62.5 g ai/ha, evaluated after 13 days, read-out: Corn damage rating (100=total damage to plant; 0=no damage to plant)): 0%
plant injury at 250 g/ha (corn (Zea mays) [11]; 250 g ai/ha, evaluated after 13 days, read-out: damage to plant, Corn (100=total damage to plant; 0=no damage to plant)): 0%
pest or weed control at 15.625 g/ha ([12]; 15.625 g ai/ha, evaluated after 13 days (100=total damage to plant; 0=no damage to plant), read-out: Barnyardgrass damage rating): 0%
pest or weed control at 62.5 g/ha ([12]; 62.5 g ai/ha, evaluated after 13 days, read-out: Barnyardgrass damage rating (100=total damage to plant; 0=no damage to plant)): 20%
pest or weed control at 250 g/ha ([12]; 250 g ai/ha, evaluated after 13 days, read-out: damage to plant, Barnyardgrass (100=total damage to plant; 0=no damage to plant)): 60%
